Reference: patent US20090326008A1, “NF-kappa B Inhibitor” (priority 2006, published 2009)

Tested on: NF-κB
Experiment: NF-kappaB reporter assay (pNF-kappaB-SEAP) in IL-1β-stimulated MKN-45 cells
Type: cell-based, human
Conditions: IL-1β 2 ng/mL for 6 hours, DMSO (0.05%) control = 1.00, triplicate
Procedure: pNF-kappaB-SEAP was obtained from Clonetech Laboratories Inc.
Cryopreserved MKN-45 cells (product of JCRB (Japanese Collection of Research Bioresources)) were thawed and cultured in a standard medium in an incubator (37° C., 5% CO2). Every three to five days, the cells were recovered by treatment with Trypsin-EDTA, then adequately diluted and subcultured. MKN-45 cells subcultured two or more times with a survival rate of 95% or more were used in each experiment.
The subcultured MKN-45 cells were harvested using Trypsin-EDTA solution, and the number of viable cells was counted. The cells were suspended in a standard medium to yield a 1.5×10^5 cells/mL suspension. A 24-well plate was seeded with 500 μL/well of the cell suspension, and the cells were cultured in an incubator (37° C., 5% CO2).
The day after seeding, transfection was performed according to the following protocol.
(4.1) Preparation of Plasmid Solution 4 μL of 0.1 μg/μL pNFkappaB-SEAP was placed into each well and diluted with 50 μL of OPTI-MEM I (product of Invitrogen Japan K.K.) by mixing by inversion.
1 μL of Lipofectamine 2000 reagent (product of Invitrogen) was placed into each well and diluted with 50 μL of OPTI-MEM I (product of Life Technologies Inc.) by mixing by inversion. The mixture was allowed to stand at room temperature for 5 to 10 minutes to prepare a Lipofectamine dilution.
The plasmid solution and the Lipofectamine dilution were mixed by inversion and allowed to stand at room temperature for 20 to 30 minutes to prepare a transfection mixture.
The culture medium was removed from the 24-well plate by suction. While care was taken not to dry the subcultured MKN-45 cells, the inner surface of the wells was washed with 1 mL/well of PBS. After the medium was replaced with 500 μL/well of OPTI-MEM I (product of Life Technologies Inc.), 100 μL/well of the transfection mixture was added, and the cells were cultured in a incubator (37° C., 5% CO2). After about 5 hours of incubation, the medium was replaced with a standard medium, and the cells were further cultured in a CO2 incubator (37° C., 5% CO2) until the following day.
On the following morning, the culture medium supernatant was removed by suction and replaced with 1 mL/well of the test compound solution or control solution diluted with a standard medium. The cells were cultured in a CO2 incubator (37° C., 5% CO2) for 1 hour. Each experiment was performed in triplicate.
200 ng/mL IL-1β was added in an amount of 10 μL/well (final concentration: 2 ng/mL), and the cells were cultured in a CO2 incubator (37° C., 5% CO2) for 6 hours.
A reporter assay was performed using Reporter Assay Kit-SEAP (product of Toyobo Co.) according to the manufacturer's protocol.
More specifically, 500 μL of the culture broth was transferred into a tube and centrifuged at 15,000 rpm for 5 minutes at 4° C. The supernatant was transferred into a 96-well white plate. The positive control included in the Reporter Assay Kit-SEAP, and a standard medium as a blank control were each added in an amount of 20 μL/well to the 96-well white plate. Further, an inhibitor for inhibiting the AP activity of the MKN-45 cells was added in an amount of 20 μL/well. After sealing the plate, the contents were mixed well. The plate was placed into a CO2 incubator (37° C., 5% CO2) and allowed to stand for 30 minutes. Subsequently, the plate was allowed to stand on ice for 1 minute, followed by addition of 160 μL/well of Lumi-Phos Plus (a chemiluminescent substrate, product of Lumigen Inc.). The plate was sealed again and placed in a light-shielded state into a CO2 incubator (37° C., 5% CO2). After the plate was allowed to stand for 15 to 30 minutes, luminescence was measured for about 5 to about 10 seconds using a luminometer.
The results of the reporter assay were expressed as Percent Control (or Inhibition), calculated according to the following formulae. The luminescence of each sample was calculated by subtracting the average of blank samples.

`COc1ccc(CC2SC(=S)NC2=O)c2c1N(CCC(C)C)C(=O)CC2` (stereo not shown) [Test Compound 965] was tested, and the “NF-kappaB reporter (SEAP luminescence) IL-1b(+) mean, relative to control” value was 0.68.
